Data: PMC3916804, “The development and validation of an LC-MS/MS method for the determination of a new anti-malarial compound (TK900D) in human whole blood and its application to pharmacokinetic studies in mice” (Malaria Journal, 2014)
Like-named read-outs stand apart in the source and are kept apart here.

Experiments:
[1] = tested on: P. falciparum CQ-resistant (K1) strain; parameters: method as in PMID 24900630; details: read-out: in vitro antiplasmodial activity IC50; cited from earlier work
[2] = tested on: P. falciparum CQ-resistant (W2) strain; parameters: method as in PMID 24900630; details: read-out: in vitro antiplasmodial activity IC50; cited from earlier work
[3] = tested on: P. falciparum CQ-sensitive (3D7) strain; parameters: method as in PMID 24900630; details: read-out: in vitro antiplasmodial activity IC50; cited from earlier work
[4] = long-term stability in human whole blood; type: in vitro ADME; details: for Long term stability, % Bias from nominal: human whole blood, ~ -80°C, 181 days, n = 6
Method: For the determination of long-term stability in human whole blood, TK900D spiked quality control samples at 800.0 ng/ml and 10.01 ng/ml were stored at ~ -80°C for 181 days (long enough to cover the time period elapsed from the first day of sample collection to the final sample analysis). These samples were thawed on the day of testing and run together with freshly prepared calibration standards and quality controls and the values were calculated from the resulting calibration curve obtained from the calibration standards.

[5] = short-term (on-bench) stability in blood; type: in vitro ADME, human; details: for On bench stability, % Bias from nominal: blood, room temperature on bench, n = 6
Method: […] The samples were assayed in one of the validation batches. The measured concentrations were compared with the nominal concentrations of these samples.

[6] = freeze and thaw stability in blood; type: in vitro ADME, human; details: for Freeze and thaw stability, % Bias from nominal: blood, three freeze-thaw cycles from ~ -80°C, n = 6
Method: Quality control blood samples at high and low concentration, 800.0 and 10.01 ng/ml respectively, of TK900D stored frozen at ~ -80°C were allowed to thaw completely unassisted at room temperature and then refrozen for 12 to 24 hours. After three such freeze-thaw cycles the samples were assayed in the third validation run and the measured concentrations were compared with the nominal concentrations of these samples.

[7] = pharmacokinetic evaluation in mice (oral and IV), blood levels by LC-MS/MS; type: in vivo, C57/BL6 mice; details: for Blood CL total / Vd / Vss / AUC 0 - ∞ / Apparent t 1/2 / T max / Bioavailability / Cmax: male C57/BL6 mice; for AUC 0 - ∞ / Apparent t 1/2 / Cmax: blood; for Apparent t 1/2: mean of 5; for half-life: male, C57/BL6, mouse, whole blood, mice, read-out: apparent half-life, range
Method: Snapshot pharmacokinetic evaluations were performed on a number of analogues from the TK-series anti-malarial compounds. […] The test compound dissolved in a 20 mM Sodium acetate buffer (pH 4.0): Ethanol: PEG400 (70:5:25; v/v/) drug vehicle was administered orally to healthy C57/BL6 mice (n = 5) at doses of 40 and 20 mg/kg, and intravenously at doses of 5 and 2.5 mg/kg. Blood samples were collected at predetermined sampling times (except for the first sampling time, i.e. 5 minutes after dosing for the IV group and 10 minutes for the oral group, the sampling times were 0.5,1, 3, 5, 7, 12 and 24 h after dosing) by bleeding the tip of the tail, and analysed using a validated LC-MS/MS assay. Back-calculated concentrations of the blood samples were obtained from a standard regression curve with nine concentration levels (3.910 to 1000 ng/ml). Concentration vs. time profiles were constructed and the data analysed with Summit PK software to obtain the pharmacokinetic parameters.

[8] = tested on: CHO mammalian cell line; parameters: method as in PMID 24900630; details: MTT assay, read-out: cytotoxicity IC50; cited from earlier work
[9] = stock solution stability in methanol; type: physicochemical; details: for stock solution stability in methanol, % Reference (peak area vs fresh): 100.0 μg/ml in methanol, eight days, n = 6; for stability in methanol (in words): at room temperature, 5°C, and -20°C
Method: The stability of TK900D and TK900E in methanol was evaluated at room temperature, ~ 5°C and ~ -20°C. Stock solutions with concentrations of 100.0 μg/ml of TK900D and the internal standard were prepared in methanol. Three aliquots of each of the stock solutions were kept at room temperature, ~ 5 °C, and ~ –20°C, respectively, for eight days. After diluting the stored stock solutions in injection solvent to a 100.0 ng/ml, the stability of TK900D and that of the internal standard were assessed by comparing the peak areas obtained from the stored stock solutions with peak areas of the freshly prepared stock solutions. For stock solution results to be acceptable the percentage reference value should not exceed 15%.

[10] = on-instrument stability (OIS) of extracted samples; type: physicochemical; details: for OIS (on-instrument stability), % Bias: extracted samples on instrument, n = 6; for on-instrument stability (in words): ~ 8.2 h on-instrument
Method: In order to assess the stability of the analytes while awaiting injection on instrument, on-instrument stability (OIS) was assessed for the period of time that the extracted samples were expected to stay on-instrument during the batch run-time (~ 9 h). Quality control samples at high and low concentrations (800.0 ng/ml and 10.01 ng/ml, respectively), were extracted in replicates of six and injected at the beginning and end of the run (i.e. six QC-high and six QC-low at the beginning of the run and another set of six QC-high and QC-low at the end of the run bracketed with quality control samples). The mean measured concentration of the OIS-samples (injected at the end of the run) and OIS-reference samples (injected at the beginning of the run) were compared: in order to be acceptable, their percentage difference should be within ± 15%.

[11] = other: oral and intravenous, over all oral and IV dose groups
[12] = as summarised in abstract (matches oral 40 and 20 mg/kg groups)

In the case of `CCN(CC)CCCC(C)Nc1ccnc2cc(Cl)ccc12` (stereo not drawn) [CQ, Chloroquine, reference compound], the IC50 [1] is listed as 36 nM, the IC50 [2] is listed as 59.1 nM and the IC50 [3] is listed as 0.2 nM.

For `CC(C)(C)n1nnnc1C(NCCNc1ccnc2cc(Cl)ccc12)c1ccc(Cl)c(Cl)c1` (stereo not drawn) [TK900D], the “stability in human whole blood (in words)” value ([4]; 181 days stored at -80°C) was “stable”, the “Long term stability, % Bias from nominal” value ([4]; High (800.0 ng/ml)) was 0.7% and the “Long term stability, % Bias from nominal” value ([4]; Low (10.01 ng/ml)) was -4.0%. For the same molecule, the “On bench stability, % Bias from nominal” value ([5]; High (800.0 ng/ml)) was 8.3%, the “On bench stability, % Bias from nominal” value ([5]; Low (10.01 ng/ml)) was 5.2% and the “on-bench stability (in words)” value ([5]; ~ 12 h on-bench at room temperature) was “stable”. For the same molecule, the IC50 [1] was 8.2 nM, the “freeze-thaw stability (in words)” value ([6]; at least three freeze-thaw cycles) was “stable” and the “Freeze and thaw stability, % Bias from nominal” value ([6]; High (800.0 ng/ml)) was 6.6%. The “Freeze and thaw stability, % Bias from nominal” value ([6]; Low (10.01 ng/ml)) was 8.6%, the “Blood CL total” value ([7]; IV 2.5 mg/kg) was 48.9 mL/min/kg and the Vd ([7]; IV 2.5 mg/kg) was 7.9 L/kg. The Vss ([7]; IV 2.5 mg/kg) was 8.7 L/kg, the “AUC 0 - ∞” value ([7]; IV 2.5 mg/kg) was 104 µmol·min/L and the “Apparent t 1/2” value ([7]; IV 2.5 mg/kg) was 1.9 h. The “Blood CL total” value ([7]; IV 5.0 mg/kg) was 44.8 mL/min/kg, the Vd ([7]; IV 5.0 mg/kg) was 8.9 L/kg and the Vss ([7]; IV 5.0 mg/kg) was 9.1 L/kg. The “AUC 0 - ∞” value ([7]; IV 5.0 mg/kg) was 222 µmol·min/L, the “Apparent t 1/2” value ([7]; IV 5.0 mg/kg) was 2.3 h and the T max ([7]; oral 20 mg/kg) was 1.4 h. For the same molecule, the Bioavailability ([7]; oral 20 mg/kg vs IV 2.5 mg/kg) was 30.8%, the “AUC 0 - ∞” value ([7]; oral 20 mg/kg) was 256 µmol·min/L and the Cmax ([7]; oral 20 mg/kg) was 540 nM. For the same molecule, the “Apparent t 1/2” value ([7]; oral 20 mg/kg) was 6.0 h, the T max ([7]; oral 40 mg/kg) was 1.4 h and the Bioavailability ([7]; oral 40 mg/kg vs IV 5 mg/kg) was 16.2%. The “AUC 0 - ∞” value ([7]; oral 40 mg/kg) was 287 µmol·min/L, the Cmax ([7]; oral 40 mg/kg) was 790 nM and the “Apparent t 1/2” value ([7]; oral 40 mg/kg) was 3.9 h. The half-life [7, 11] was 2 to 6 h, the half-life [7, 12] was 4 to 6 h and the IC50 [8] was 10500 nM. For the same molecule, the IC50 [2] was 30.5 nM, the IC50 [3] was 0.4 nM and the “stock solution stability in methanol, % Reference (peak area vs fresh)” value ([9]; room temperature) was 106.9%. For the same molecule, the “stock solution stability in methanol, % Reference (peak area vs fresh)” value ([9]; ~ 5°C) was 105.2%, the “stock solution stability in methanol, % Reference (peak area vs fresh)” value ([9]; ~ -20°C) was 100.3% and the “stability in methanol (in words)” value [9] was “stable”. For the same molecule, the “OIS (on-instrument stability), % Bias” value ([10]; High (800.0 ng/ml)) was 0.9%, the “OIS (on-instrument stability), % Bias” value ([10]; Low (10.01 ng/ml)) was 4.5% and the “on-instrument stability (in words)” value [10] was “stable”.

In the case of `CC(C)(C)n1nnnc1C(NCCNc1ccnc2cc(Cl)ccc12)c1ccc(Cl)cc1` (stereo not drawn) [TK900E], the IC50 [1] is listed as 1 nM, the “Blood CL total” value ([7]; IV 2.5 mg/kg) is listed as 51.2 mL/min/kg and the Vd ([7]; IV 2.5 mg/kg) is listed as 7.0 L/kg. For the same molecule, the Vss ([7]; IV 2.5 mg/kg) was 6.5 L/kg, the “AUC 0 - ∞” value ([7]; IV 2.5 mg/kg) was 107 µmol·min/L and the “Apparent t 1/2” value ([7]; IV 2.5 mg/kg) was 1.6 h. For the same molecule, the “Blood CL total” value ([7]; IV 5.0 mg/kg) was 51.0 mL/min/kg, the Vd ([7]; IV 5.0 mg/kg) was 10.3 L/kg and the Vss ([7]; IV 5.0 mg/kg) was 12.6 L/kg. For the same molecule, the “AUC 0 - ∞” value ([7]; IV 5.0 mg/kg) was 221 µmol·min/L, the “Apparent t 1/2” value ([7]; IV 5.0 mg/kg) was 2.5 h and the T max ([7]; oral 20 mg/kg) was 0.8 h. For the same molecule, the Bioavailability ([7]; oral 20 mg/kg vs IV 2.5 mg/kg) was 25.9%, the “AUC 0 - ∞” value ([7]; oral 20 mg/kg) was 222 µmol·min/L and the Cmax ([7]; oral 20 mg/kg) was 940 nM. The “Apparent t 1/2” value ([7]; oral 20 mg/kg) was 3.6 h, the T max ([7]; oral 40 mg/kg) was 1.0 h and the Bioavailability ([7]; oral 40 mg/kg vs IV 5 mg/kg) was 30.6%. The “AUC 0 - ∞” value ([7]; oral 40 mg/kg) was 541 µmol·min/L, the Cmax ([7]; oral 40 mg/kg) was 2810 nM and the “Apparent t 1/2” value ([7]; oral 40 mg/kg) was 4.0 h. The half-life [7, 11] was 1.6 to 4 h, the half-life [7, 12] was 3.6 to 4 h and the IC50 [2] was 25.5 nM. The IC50 [3] was 2 nM, the “stock solution stability in methanol, % Reference (peak area vs fresh)” value ([9]; room temperature) was 102.8% and the “stock solution stability in methanol, % Reference (peak area vs fresh)” value ([9]; ~ 5°C) was 103.5%. For the same molecule, the “stock solution stability in methanol, % Reference (peak area vs fresh)” value ([9]; ~ -20°C) was 98.2%, the “stability in methanol (in words)” value [9] was “stable” and the “on-instrument stability (in words)” value [10] was “stable”.
